Values of other authors in patent US4127523A, “Novel undecapeptides, intermediates therefor, and compositions and methods employing said undecapeptides” (priority 1977, dated 1978).

How the values were obtained:
[1] = tested on: partially purified brain opiate receptor sites; conditions: literature, Bradbury et al.
[2] = literature
[3] = injected directly into the brain of the rat; Belluzzi et al.

## H-Tyr-Gly-Gly-Phe-Met-OH [methionine enkephalin]
[1]
  binding to partially purified brain opiate receptor sites: binds stereo-specifically
[2]
  activity in bioassays for opiate activity: very active
[3]
  analgesic activity: only weak analgesic agent of short duration
